16 compounds from US10358434B2, “2-(3-pyridinyl)-1H-benzimidazole derivative compound and medicament containing same” (NIHON MEDI-PHYSICS CO., LTD., priority 2014, dated 2019) can be followed below.

Several values for one entry are separate records, joined by “and”; a condition that tells them apart may be missing. Equal entries are not always repeated.

One test addresses T1, human CYP11B2 (Homo sapiens, UniProt P19099).
T1 construct: expressed in transfected cells; host or cells: V79 cells (Chinese hamster lung-derived fibroblasts, from ECACC through DS Pharma Biomedical)
T1 sequence (P19099 25-503): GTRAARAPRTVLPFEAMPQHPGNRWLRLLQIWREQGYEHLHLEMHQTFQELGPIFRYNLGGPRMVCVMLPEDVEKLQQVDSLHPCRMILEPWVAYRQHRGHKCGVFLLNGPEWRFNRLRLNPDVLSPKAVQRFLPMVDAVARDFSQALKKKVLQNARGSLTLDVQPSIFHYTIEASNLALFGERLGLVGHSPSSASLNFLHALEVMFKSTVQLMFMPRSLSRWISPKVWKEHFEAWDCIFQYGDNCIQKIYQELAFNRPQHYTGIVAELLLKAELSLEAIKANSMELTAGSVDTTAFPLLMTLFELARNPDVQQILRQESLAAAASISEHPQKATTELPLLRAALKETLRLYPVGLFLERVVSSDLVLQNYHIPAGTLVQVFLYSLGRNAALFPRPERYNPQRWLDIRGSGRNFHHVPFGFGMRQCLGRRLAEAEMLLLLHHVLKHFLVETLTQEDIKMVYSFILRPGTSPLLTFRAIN
The experiment in a line: Aldosterone production inhibition in V79-B2 cells expressing human CYP11B2 (ELISA). It is filed as cell-based. The conditions noted are these: for IC50: V79-B2 cells, corticosterone 100 nmol/L, 4 hours, aldosterone by ELISA, mean or mean ± SD; for Selectivity factor: mean IC50 cortisol production inhibition divided by mean IC50 aldosterone production inhibition. As for the experimental part:
(§1) This inhibition experiment can be carried out by the following operations. Human CYP11B1 and human CYP11B2 are allowed to individually express in Chinese hamster lung-derived fibroblasts. Subsequently, 11-deoxycortisol is added to the cells expressing human CYP11B1 to a final concentration of 100 nmol/L, and corticosterone is added to the cells expressing human CYP11B2 to a final concentration of 100 nmol/L. At the same time, a target compound used as an analytical sample is added to each of the cells to a final concentration of 10^−4 to 10^4 nmol/L. Thereafter, the concentration of cortisol as a metabolite of CYP11B1 is measured in the cells expressing human CYP11B1 according to ELISA (Enzyme-Linked ImmunoSorbent Assay), and the concentration of aldosterone as a metabolite of CYP11B2 is measured in the cells expressing human CYP11B2 according to ELISA. Provided that the aldosterone concentration and the cortisol concentration without addition of any target compound as a sample are each set at 100%, an inhibition curve is produced, and then inhibitory activity (IC50) is calculated.
(§2) Chinese hamster lung-derived fibroblasts, V79 cells (acquired from ECACC (European Collection of Cell Cultures) through DS Pharma Biomedical), were allowed to express human CYP11B2, so as to produce V79-B2, and were also allowed to express human CYP11B1, so as to produce V79-B1. V79 cells were cultured in a DMEM medium (containing 4,500 mg/L D-glucose, L-glutamine, and 110 mg/L sodium pyruvate; manufactured by Life Technologies). V79-B2 or V79-B1 was inoculated on a microplate, and then cultured overnight. Thereafter, a mixed solution of corticosterone and a compound as a test target was added into a culture supernatant of V79-B2, and a mixed solution of 11-deoxycortisol and a compound as a test target was added into a culture supernatant of V79-B1. As a solvent for these mixed solutions, the aforementioned DMEM medium further containing 0.1 v/v % dimethyl sulfoxide was used. The concentration of corticosterone or 11-deoxycortisol was adjusted to be 100 nmol/L by addition of the solvent. As test target compounds, (R)-4-iodometomidate (IMTO), and Compounds 100, 200, 300, 400, 500, and 601 to 610 synthesized by methods shown in Examples 1, 3, 5, 6, 8, 10, 12, 14, 16, 18, 20, 22, 24, 26, and 28, respectively, were used. The aforementioned mixed solution was prepared such that the concentration of each compound was 10^−4 to 10^4 nmol/L in the mixed solution. One hour later, the culture supernatant of V79-B1 was recovered, and the concentration of cortisol as a metabolite of CYP11B1 was measured by ELISA (Enzyme-Linked ImmunoSorbent Assay). Moreover, four hours later, the culture supernatant of V79-B2 was recovered, and the concentration of aldosterone as a metabolite of CYP11B2 was measured by ELISA. Provided that the concentration of aldosterone or the concentration of cortisol obtained when none of IMTO and Compounds 100, 200, 300, 400 and 500 was added was defined as 100%, an inhibition curve was produced, and the inhibitory activity (IC50) of each compound was then calculated.
(§3) In Tables 5 and 6, the term “Selectivity factor” indicates a quotient of the mean value of IC50 for cortisol production inhibition divided by the mean value of IC50 for aldosterone production inhibition. In addition, the symbol “n” indicates the number of tests.

A further test deals with T2, human CYP11B1 (Homo sapiens, UniProt P15538).
T2 construct: expressed in transfected cells; host or cells: V79 cells (Chinese hamster lung-derived fibroblasts, from ECACC through DS Pharma Biomedical)
T2 sequence (P15538 25-503): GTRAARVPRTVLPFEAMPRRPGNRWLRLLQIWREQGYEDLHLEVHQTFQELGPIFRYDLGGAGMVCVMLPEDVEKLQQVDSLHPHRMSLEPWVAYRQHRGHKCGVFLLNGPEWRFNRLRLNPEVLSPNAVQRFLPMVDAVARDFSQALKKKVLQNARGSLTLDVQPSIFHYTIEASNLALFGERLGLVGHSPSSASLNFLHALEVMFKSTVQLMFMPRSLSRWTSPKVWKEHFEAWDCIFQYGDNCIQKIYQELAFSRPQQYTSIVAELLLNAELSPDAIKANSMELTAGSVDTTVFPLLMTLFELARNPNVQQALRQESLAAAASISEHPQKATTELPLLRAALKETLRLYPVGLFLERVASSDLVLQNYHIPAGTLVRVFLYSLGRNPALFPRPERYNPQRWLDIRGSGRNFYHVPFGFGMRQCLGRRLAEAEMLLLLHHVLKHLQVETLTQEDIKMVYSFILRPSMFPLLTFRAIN
The experiment in a line: Cortisol production inhibition in V79-B1 cells expressing human CYP11B1 (ELISA). The conditions noted are these: 11-deoxycortisol 100 nmol/L, 1 hour, cortisol by ELISA, mean or mean ± SD. The test is classed as cell-based. As for the experimental part: as §1, §2, §3

On to `FCCn1c(-c2cncc(Cn3ccnc3)c2)nc2cc(F)c(Cl)cc21` [Compound 100, 6-Chloro-5-fluoro-1-(2-fluoroethyl)-2-[5-(imidazol-1-ylmethyl)pyridin-3-yl]benzimidazole], for which, on human CYP11B2, the concentration for half-maximal inhibition (IC50) is 0.0069 ± 0.00287 µM and the Selectivity factor is 15.8. The IC50 at human CYP11B1 came to 0.109 ± 0.0158 µM.
Regarding `FCCn1c(-c2cncc(Cn3ccnc3)c2)nc2cc(F)c(Br)cc21` [Compound 200, 6-Bromo-5-fluoro-1-(2-fluoroethyl)-2-[5-(imidazol-1-ylmethyl)pyridin-3-yl]benzimidazole], at human CYP11B2, the IC50 was 0.00747 µM and the Selectivity factor is 19.0. The same compound had an IC50 against human CYP11B1 of 0.142 µM.
Turning to `COC(=O)c1cncn1Cc1cncc(-c2nc3cc(F)c(Br)cc3n2CCO)c1` [Compound 300, 2-{6-Bromo-5-fluoro-2-[5-(5-methylcarboxylateimidazol-1-ylmethyl)pyridin-3-yl]benzimidazol-1-yl}ethanol], the IC50 at human CYP11B2 stood at 0.0106 µM; against human CYP11B1, 0.019 µM. At human CYP11B2, this compound yielded a Selectivity factor of 1.79.
Consider `FCCn1c(-c2cncc(Cn3ccnc3)c2)nc2cc(F)c(I)cc21` [Compound 400, 5-Fluoro-1-(2-fluoroethyl)-2-[5-(imidazol-1-ylmethyl)pyridin-3-yl]-6-iodobenzimidazole], for which the values for the IC50 at human CYP11B2 and against human CYP11B1 were 0.0445 µM and 0.345 µM, respectively. The Selectivity factor at human CYP11B2 is 7.77.
The matching figures for `FCCCn1c(-c2cncc(Cn3ccnc3)c2)nc2cc(F)c(Cl)cc21` [Compound 500, 6-Chloro-5-fluoro-1-(3-fluoropropyl)-2-[5-(imidazol-1-ylmethyl)pyridin-3-yl]benzimidazole]: 0.00394 µM, 0.0335 µM and 8.51.
At human CYP11B2, `Ic1ccc2nc(-c3cncc(Cn4ccnc4)c3)n(C3CC3)c2c1` [Compound 602, 1-Cyclopropyl-2-[3-(1H-imidazol-1-ylmethyl)pyridin-5-yl]-6-iodo-1H-benzimidazole] registered a half-inhibitory concentration (IC50) of 0.00217 µM and a Selectivity factor of 20.5. Also, it took 0.0445 µM to reach half-maximal inhibition against human CYP11B1 (IC50).
The matching figures for `Ic1ccc2nc(-c3cncc(Cn4ccnn4)c3)n(C3CC3)c2c1` [Compound 603, 1-Cyclopropyl-2-[3-(1H-1,2,3-triazol-1-ylmethyl)pyridin-5-yl]-6-iodo-1H-benzimidazole]: 0.0181 µM, 16.4 and 0.296 µM.
For the compound `FCCn1c(-c2cncc(Cn3ccnc3)c2)nc2ccc(I)cc21` [Compound 604, 1-(2-Fluoroethyl)-2-[5-{(imidazol-1-yl)methyl}pyridin-3-yl]-6-iodobenzimidazole], at human CYP11B2, the IC50 is 0.00454 µM and the Selectivity factor came to 11.9. This compound registered an IC50 on human CYP11B1 of 0.054 µM.
On human CYP11B2, `Fc1cc2nc(-c3cncc(Cn4ccnc4)c3)n(Cc3ccc(I)cc3)c2cc1Cl` [Compound 605, 6-Chloro-5-fluoro-1-(4-iodobenzyl)-2-[5-(1H-imidazol-1-ylmethyl)-3-pyridinyl]-1H-benzimidazole] returned a concentration for half-maximal inhibition (IC50) of 0.204 µM and a Selectivity factor of 1.76. Also, the half-maximal inhibitory concentration (IC50) on human CYP11B1 was 0.359 µM.
On human CYP11B2, `CC(C)n1c(-c2cncc(Cn3ccnc3)c2)nc2ccc(I)cc21` [Compound 606, 2-[5-{(1H-imidazol-1-yl)methyl}pyridin-3-yl]-6-iodo-1-isopropyl-1H-benzo[d]imidazole] gave an IC50 of 0.116 µM and a Selectivity factor of 3.17. This compound had a 50% inhibitory concentration (IC50) against human CYP11B1 of 0.368 µM.
The matching figures for `Cn1c(-c2cncc(Cn3ccnc3)c2)nc2ccc(I)cc21` [Compound 607, 2-[5-{(1H-imidazol-1-yl)methyl}pyridin-3-yl]-6-iodo-1-methyl-1H-benzo[d]imidazole]: 0.00093 µM, 7.62 and 0.00707 µM.
On to `CCn1c(-c2cncc(Cn3ccnc3)c2)nc2ccc(I)cc21` [Compound 608, 2-[5-{(1H-imidazol-1-yl)methyl}pyridin-3-yl]-1-ethyl-6-iodo-1H-benzo[d]imidazole], for which the IC50 against human CYP11B2 worked out at 0.00658 µM; at human CYP11B1, 0.0522 µM. Moreover, the Selectivity factor at human CYP11B2 amounted to 7.93.
The matching figures for `COc1cc(I)cc2c1nc(-c1cncc(Cn3ccnc3)c1)n2C1CC1` [Compound 609, 1-Cyclopropyl-2-[5-(imidazol-1-ylmethyl)pyridin-3-yl]-6-iodo-4-methoxybenzimidazole]: 0.00149 µM, 0.0155 µM and 10.4.
In the case of `FCCn1c(-c2cncc(Cn3cncc3I)c2)nc2cc(F)c(Cl)cc21` [Compound 610, 6-Chloro-5-fluoro-1-(2-fluoroethyl)-2-{5-(5-iodo-1H-imidazol-1-ylmethyl)pyridin-3-yl}benzimidazole], on human CYP11B2, the IC50 came to 0.00981 µM and the Selectivity factor amounted to 9.27. On human CYP11B1, this compound came in with an IC50 of 0.091 µM.
For `COC(=O)c1cncn1[C@H](C)c1ccc(I)cc1` [IMTO, (R)-4-iodometomidate, reference compound], at human CYP11B2, the IC50 was 0.00021 µM and 0.00024 µM; the Selectivity factor was 1.01 and 1.03. For the same compound, the half-inhibitory concentration (IC50) at human CYP11B1 is 0.00022 µM and 0.00025 µM.
With “Methyl 1-[4-(1-cyclopropyl-6-iodo-1H-imidazobenzo-2-yl)-3-pyridinylmethyl)]-1H-imidazolecarboxylate [Compound 601]”, on human CYP11B2, the midpoint of inhibition, the IC50, lay at 0.00309 µM and the Selectivity factor worked out at 12.2. On human CYP11B1, this compound registered a half-maximal inhibitory concentration (IC50) of 0.0378 µM.
